Legend:
Conditions in all cases: exposure: 6-8 hpf to 5 dpf, scored at 6 dpf
[1] = tested on: Danio rerio embryo/larva; assay: max % larvae with any abnormality across tested concentrations; max tested concentration (log10 uM): 2; higher = more toxic; extreme values may be limits of the assay
[2] = tested on: Danio rerio embryo/larva; assay: max % larvae unhatched across tested concentrations; max tested concentration (log10 uM): 2; higher = more toxic
[3] = tested on: Danio rerio embryo/larva; assay: max % larvae dead across tested concentrations; max tested concentration (log10 uM): 2; higher = more toxic; extreme values may be limits of the assay
[4] = tested on: Danio rerio embryo/larva; assay: max % larvae with craniofacial defects across tested concentrations; higher = more toxic; extreme values may be limits of the assay
[5] = tested on: Danio rerio embryo/larva; assay: max % larvae with blood pooling across tested concentrations; higher = more toxic; extreme values may be limits of the assay
[6] = tested on: Danio rerio embryo/larva; assay: max % larvae with uninflated swim bladder across tested concentrations; higher = more toxic; extreme values may be limits of the assay
[7] = tested on: Danio rerio embryo/larva; assay: max % larvae with abnormal position across tested concentrations; higher = more toxic; extreme values may be limits of the assay
[8] = tested on: Danio rerio embryo/larva; assay: max % larvae with pigmentation defects across tested concentrations; higher = more toxic
[9] = tested on: Danio rerio embryo/larva; assay: max % larvae with tail defects across tested concentrations; higher = more toxic; extreme values may be limits of the assay
[10] = tested on: Danio rerio embryo/larva; assay: max % larvae generally abnormal across tested concentrations; higher = more toxic; extreme values may be limits of the assay
[11] = tested on: Danio rerio embryo/larva; assay: max % larvae with edema across tested concentrations; higher = more toxic; extreme values may be limits of the assay
[12] = tested on: Danio rerio embryo/larva; assay: max % larvae with spinal defects across tested concentrations; higher = more toxic; extreme values may be limits of the assay

SMILES	max % larvae [1] [%]	max % larvae unhatched across tested concentrations [2] [%]	max % larvae dead across tested concentrations [3] [%]	max % larvae [4] [%]	max % larvae [5] [%]	max % larvae [6] [%]	max % larvae [7] [%]	max % larvae [8] [%]	max % larvae [9] [%]	max % larvae generally abnormal across tested concentrations [10] [%]	max % larvae [11] [%]	max % larvae [12] [%]
O=C(CC(=O)C(F)(F)F)C(F)(F)F [1,1,1,5,5,5-Hexafluoro-2,4-pentanedione]	0	0	0	–	–	–	–	–	–	–	–	–
FC(F)(Br)C(F)(F)C(F)(F)C(F)(F)C(F)(F)C(F)(F)Br [1,6-Dibromododecafluorohexane]	4.17	0	0	–	–	–	–	–	–	–	–	–
FC(F)(F)C(F)(F)C(F)(F)C(F)(F)CCI [1H,1H,2H,2H-Perfluorohexyl iodide]	8.33	0	0	–	–	–	–	–	–	–	–	–
OCC(F)(F)C(F)(F)C(F)(F)C(F)F [1H,1H,5H-Perfluoropentanol]	16.7	0	16.7	–	–	–	–	–	–	–	–	–
OCC(F)(F)C(F)(F)C(F)(F)C(F)(F)C(F)(F)C(F)F [1H,1H,7H-Dodecafluoro-1-heptanol]	8.33	0	0	–	–	–	–	–	–	–	–	–
OCC(F)(F)OC(F)(F)C(F)(F)OC(F)(F)CO [1H,1H,8H,8H-Perfluoro-3,6-dioxaoctane-1,8-diol]	0	0	0	–	–	–	–	–	–	–	–	–
FC(F)(F)C(F)(F)C(F)(F)CC1CO1 (stereo unspecified) [1H,1H-Heptafluorobutyl epoxide]	9.09	0	0	–	–	–	–	–	–	–	–	–
C=CC(=O)OCC(F)(F)C(F)(F)C(F)(F)C(F)(F)C(F)(F)C(F)(F)C(F)(F)F [1H,1H-Perfluorooctyl acrylate]	0	0	0	–	–	–	–	–	–	–	–	–
O=C(O)C(F)(F)C(F)(F)C(F)(F)F [Perfluorobutanoic acid] (max tested concentration (log10 uM): 2)	–	–	–	20	0	20	0	0	0	20	20	0
O=C(O)C(F)(F)C(F)(F)C(F)(F)C(F)(F)C(F)(F)C(F)(F)F [Perfluoroheptanoic acid] (max tested concentration (log10 uM): 2)	–	–	–	0	0	16.7	0	0	0	8.33	8.33	0
O=C(Cl)C(F)(F)C(F)(F)C(F)(F)C(F)(F)C(F)(F)C(F)(F)F [Perfluoroheptanoyl chloride] (max tested concentration (log10 uM): 2)	–	–	–	16.7	0	16.7	4.17	0	8.33	16.7	16.7	8.33
O=C(O)C(F)(F)C(F)(F)C(F)(F)C(F)(F)C(=O)O [Perfluorohexanedioic acid] (max tested concentration (log10 uM): 2)	–	–	–	0	0	0	0	0	0	0	0	0
O=C(O)C(F)(F)C(F)(F)C(F)(F)C(F)(F)C(F)(F)F [Perfluorohexanoic acid] (max tested concentration (log10 uM): 2)	–	–	–	0	0	0	0	0	0	0	0	0
NC(=O)C(F)(F)C(F)(F)C(F)(F)C(F)(F)C(F)(F)C(F)(F)C(F)(F)F [Perfluorooctanamide] (max tested concentration (log10 uM): 2)	–	–	–	0	0	0	0	0	0	0	0	0
N=C(N)C(F)(F)C(F)(F)C(F)(F)C(F)(F)C(F)(F)C(F)(F)C(F)(F)F [Perfluorooctanamidine] (max tested concentration (log10 uM): 1)	–	–	–	0	16.7	0	0	0	0	8.33	4.17	0
O=C(O)C(F)(F)C(F)(F)C(F)(F)C(F)(F)C(F)(F)C(F)(F)C(F)(F)F [Perfluorooctanoic acid] (max tested concentration (log10 uM): 2)	–	–	–	0	0	16.7	8.33	0	4.17	16.7	16.7	0
NC(=O)C(F)(F)C(F)(F)C(F)(F)C(F)F [Perfluoropentanamide] (max tested concentration (log10 uM): 2)	–	–	–	0	0	0	0	0	0	0	0	0
O=C(O)C(F)(F)C(F)(F)C(F)(F)C(=O)O [Perfluoropentanedioic acid] (max tested concentration (log10 uM): 2)	–	–	–	0	0	0	0	0	0	0	0	0
O=C(O)C(F)(F)C(F)(F)C(F)(F)C(F)(F)F [Perfluoropentanoic acid] (max tested concentration (log10 uM): 2)	–	–	–	0	0	16.7	4.17	0	0	16.7	16.7	0
O=C(O)C(F)(F)C(F)(F)F [Perfluoropropanoic acid] (max tested concentration (log10 uM): 2)	–	–	–	0	0	0	0	0	0	0	0	0
O=C(O)C(F)(F)C(F)(F)C(F)(F)C(F)(F)C(F)(F)C(F)(F)C(F)(F)C(F)(F)C(F)(F)C(F)(F)C(F)(F)C(F)(F)C(F)(F)F [Perfluorotetradecanoic acid] (max tested concentration (log10 uM): 1.30103)	–	–	–	0	0	4.55	0	0	0	2.27	0	0
O=C(O)C(F)(F)C(F)(F)C(F)(F)C(F)(F)C(F)(F)C(F)(F)C(F)(F)C(F)(F)C(F)(F)C(F)(F)C(F)(F)C(F)(F)F [Perfluorotridecanoic acid] (max tested concentration (log10 uM): 1.30103)	–	–	–	16.7	16.7	16.7	8.33	0	0	16.7	16.7	0
O=S(=O)(O)C(F)(F)C(F)(F)C(F)(F)C(F)(F)F [Potassium perfluorobutanesulfonate] (max tested concentration (log10 uM): 2)	–	–	–	0	0	8.33	0	0	0	4.17	0	0
O=S(=O)(O)C(F)(F)C(F)(F)C(F)(F)C(F)(F)C(F)(F)C(F)(F)F [Potassium perfluorohexanesulfonate] (max tested concentration (log10 uM): 2)	–	–	–	33.3	16.7	77.8	19.4	0	0	55.6	44.4	0
O=C(O)C(F)(F)C(F)(F)C(F)(F)C(F)(F)C(F)(F)C(F)(F)C(F)(F)F [Sodium perfluorooctanoate] (max tested concentration (log10 uM): 2)	–	–	–	0	0	0	0	0	0	0	0	0
FC(F)(F)COC(OCC(F)(F)F)OCC(F)(F)F [tris(Trifluoroethoxy)methane] (max tested concentration (log10 uM): 2)	–	–	–	0	0	0	0	0	0	0	0	0

— the supplement of paper PMC11281043
